What was measured:
[1] = tested on: interaction between p53 and large T; assay: Two-hybrid assay in yeasts, positive interaction control p53 - large T; type: cell-based; conditions: 100 μM
Method: Each of the 52 mixtures of peptoids was analyzed by means of this process in triplicate, in three independent experiments. The interaction between UBC13 and UEV1 in the absence of peptoids and the interaction between p53 and the SV40 large T protein were used as positive interaction controls in all these assays. The laminin and […] proteins were used as a negative control. The β-galactosidase activities for the UBC13-UEV1 interaction were standardized with respect to the β-galactosidase activities of the corresponding positive control thereof (p53-large T). The activities β-galactosidase standardized in that manner are illustrated in FIG. 2.
The effect of compounds Ia and Ib on the UBC13-UEV1 interaction in two-hybrid assays in yeasts was performed by incubating cells of the Saccharomyces cerevisiae strain AH109, grown in a selective medium, with 100 μM of either compound. The interaction of Sv40 large T and p53 proteins was used as positive interaction control. The intensity of the interactions was determined colorimetrically by means of detecting the β-galactosidase activity, using O-nitrophenyl-p-galactopyranoside (ONPG) as a substrate, each determination being performed in triplicate. […]

[2] = tested on: transcriptional activity of NF-κB induced by TNFα; assay: NF-κB luciferase reporter assay, stimulation by TNFα in HeLa cells; type: cell-based; conditions: TNFα 10 ng/mL; for inhibition of the stimulation of the transcriptional activity of NF-κB induced by TNFα: HeLa cells, different concentrations
Method: To determine the activity of compounds Ia and Ib on the stimulation of the NFκ-B activity by TNFα, assays for inducing luciferase activity (determined with the Dual-Luciferase Reporter Assay System kit, Promega, catalog number E1910) generated by expression of the firefly (Photinus pyralis) luciferase gene directed by a promoter containing three recognition sites for NFκ-B were performed. To that end, HeLa cells were co-transfected with plasmid pRL-TK, encoding the Renilla reniformis Luciferase and being a transfection efficiency control, and plasmid prLUC, a plasmid which allows determining the transcriptional activity of NF-κB, using Fugene (Roche) as a transfection vehicle. 100,000 cells were seeded in 6-well plates (Costar). On the following day, the transfection complex was formed with 0.5 μg of each plasmid and 3 μl of Fugene for 15 minutes. The complex was added to the cells in Optimem medium (InVitrogen), and after 5 hours it was changed to complete medium (Dulbecco's Modified Eagle's Medium with 10% fetal bovine serum, 2 mM of glutamine, supplemented with penicillin and streptomycin), to which the compound Varubin (Ia) or Ib at different concentrations was added or not. On the following day, the cells were incubated with TNFα (10 ng/mL) for 4 hours, after which they were washed with phosphate buffered saline (PBS) and lysated with 250 μL of lysis buffer, following the manufacturer's (Promega) indications. 100 μL of luciferase reagent (LARII) were added to the lysate to measure the firefly luciferase activity, after which the reaction was stopped with 100 μL of stop buffer with Renilla reniformis luciferase substrate, this second activity being determined at that time. The firefly luciferase activity was standardized in relation to the Renilla luciferase activity. The values corresponding to cells transfected but not stimulated with TNFα were used as standardizers for the remaining experimental values. […]

Row | Compound | inhibition of the control interaction between p53 and large T [1] | inhibition of the stimulation of the transcriptional activity of NF-κB induced by TNFα [2] | inhibition at 100 µM ([2]; Homo sapiens, HeLa cells pre-incubated at 100 μM, read-out: inhibition of the activation of NF-κB by TNFα)
1 | NC(=O)CN(CCc1ccccn1)C(=O)C1CC(=O)N(CCc2ccc(F)cc2)CC(=O)N1CCc1ccc(F)cc1 (centres unmarked) [Ia, N-aminocarbamoylmethyl-N-(2′-(2″pyridyl)ethyl)-1,4-bis[2′-(4″-fluorophenyl)ethyl]-3,7-dioxo-[1,4]diazepane-5-carboxamide] | Neither of these two compounds inhibits the interaction | inhibits in a dose-dependent manner | ~50%
2 | NC(=O)CN(CCc1ccccn1)C(=O)CC1C(=O)N(CCc2ccc(F)cc2)CC(=O)N1CCc1ccc(F)cc1 (centres unmarked) [Ib, 1,4-bis[2′-(4″-fluorophenyl)ethyl]-2-[N-aminocarbonylmethyl-N-(2′-(2″-pyridyl)ethyl)-carbonylmethyl]piperazine-3,6-dione] | Neither of these two compounds inhibits the interaction | inhibits in a dose-dependent manner | 

From US8785430B2, “Compound that can inhibit UBC13-UEV interactions, pharmaceutical compositions and therapeutic uses” (Consejo Superior de Investigaciones Cientificas, priority 2006, dated 2014)
